{"source": "patent US4792545A", "about": "“Boholmycin antibiotic” (Bristol-Myers Company, priority 1986, dated 1988)", "key": {"E. coli D64": {"system": "E. coli D64", "experiment": "stimulating growth of streptomycin-dependent E. coli D64 (paper disc)", "assay_type": "cell-based", "conditions": "for Growth zone vs E. coli D64 / Growth zone vs E. coli D64, hazy growth zone: 37° C., 45 hours; for Growth zone vs E. coli D64, hazy growth zone: value in parentheses", "excerpt": "The results are shown in Table 4 wherein the term \"boholmycin\" is used for short in referring to boholmycin dihydrochloride tetrahydrate."}, "B. subtilis PCI-219": {"system": "B. subtilis PCI-219", "experiment": "inhibiting growth of B. subtilis PCI-219 (paper disc)", "assay_type": "cell-based", "conditions": "for Inhibition zone vs B. subtilis PCI-219: 28° C., 18 hours", "description": "Boholmycin dihydrochloride tetrahydrate was tested in comparison with streptomycin, glebomycin, myomycin B and kanamycin in respect to stimulating growth of E. coli D64 and in respect to inhibiting growth of B. subtilis PCI-219. The results are shown in Table 4 wherein the term \"boholmycin\" is used for short in referring to boholmycin dihydrochloride tetrahydrate.\n*^1 8 mm paper disc containing 35 μl of test solution\n*^3 Incubation at 28° C. for 18 hours"}, "S. aureus 209P": {"system": "S. aureus 209P", "experiment": "MIC by serial agar dilution", "assay_type": "cell-based", "conditions": "Staphylococcus aureus, 209P"}, "S. aureus Smith [1]": {"system": "S. aureus Smith", "experiment": "MIC by serial agar dilution", "assay_type": "cell-based", "conditions": "Staphylococcus aureus"}, "S. aureus A20239": {"system": "S. aureus A20239", "experiment": "MIC by serial agar dilution", "assay_type": "cell-based", "conditions": "Staphylococcus aureus, A20239"}, "M. luteus PCI-1001": {"system": "M. luteus PCI-1001", "experiment": "MIC by serial agar dilution", "assay_type": "cell-based", "conditions": "Micrococcus luteus, PCI1001"}, "M. flavus D-12": {"system": "M. flavus D-12", "experiment": "MIC by serial agar dilution", "assay_type": "cell-based", "conditions": "Micrococcus flavus, D12, medium A: Nutrient agar, read-out: MIC"}, "B. subtilis ATCC6633": {"system": "B. subtilis ATCC6633", "experiment": "MIC by serial agar dilution", "assay_type": "cell-based", "conditions": "Bacillus subtilis, medium A: Nutrient agar, read-out: MIC"}, "B. anthracis IID-115": {"system": "B. anthracis IID-115", "experiment": "microbe, parasite or virus in culture", "assay_type": "cell-based", "conditions": "Bacillus anthracis, IID115"}, "E. coli NIHJ": {"system": "E. coli NIHJ", "experiment": "MIC by serial agar dilution", "assay_type": "cell-based", "conditions": "Escherichia coli, medium A: Nutrient agar, read-out: MIC"}, "E. coli Juhl [2]": {"system": "E. coli Juhl", "experiment": "MIC by serial agar dilution", "assay_type": "cell-based", "conditions": "Escherichia coli, medium A: Nutrient agar, read-out: MIC"}, "E. coli K-12": {"system": "E. coli K-12", "experiment": "MIC by serial agar dilution", "assay_type": "cell-based", "conditions": "Escherichia coli, K12, medium A: Nutrient agar, read-out: MIC"}, "E. coli A20664": {"system": "E. coli A20664", "experiment": "MIC by serial agar dilution", "assay_type": "cell-based", "conditions": "Escherichia coli; E. coli A20664, kanamycin resistant strain; medium A: Nutrient agar; read-out: MIC"}, "E. coli JR35/c600": {"system": "E. coli JR35/c600", "experiment": "MIC by serial agar dilution", "assay_type": "cell-based", "conditions": "Escherichia coli, JR35/C600"}, "K. pneumoniae D-11 [3]": {"system": "K. pneumoniae D-11", "experiment": "MIC by serial agar dilution", "assay_type": "cell-based", "conditions": "Klebsiella pneumoniae, D11, medium A: Nutrient agar, read-out: MIC"}, "K. pneumoniae A9678": {"system": "K. pneumoniae A9678", "experiment": "MIC by serial agar dilution", "assay_type": "cell-based", "conditions": "Klebsiella pneumoniae, medium A: Nutrient agar, read-out: MIC"}, "E. cloacae A20364": {"system": "E. cloacae A20364", "experiment": "MIC by serial agar dilution", "assay_type": "cell-based", "conditions": "Enterobacter cloacae; E. cloacae A20364, kanamycin resistant strain; medium A: Nutrient agar; read-out: MIC"}, "E. cloacae A21006": {"system": "E. cloacae A21006", "experiment": "MIC by serial agar dilution", "assay_type": "cell-based", "conditions": "Enterobacter cloacae; E. cloacae A21006, kanamycin resistant strain; medium A: Nutrient agar; read-out: MIC"}, "P. mirabilis A9554": {"system": "P. mirabilis A9554", "experiment": "MIC by serial agar dilution", "assay_type": "cell-based", "conditions": "Proteus mirabilis, medium A: Nutrient agar, read-out: MIC"}, "P. vulgaris A9436": {"system": "P. vulgaris A9436", "experiment": "MIC by serial agar dilution", "assay_type": "cell-based", "conditions": "Proteus vulgaris, medium A: Nutrient agar, read-out: MIC"}, "S. marcescens A20019": {"system": "S. marcescens A20019", "experiment": "MIC by serial agar dilution", "assay_type": "cell-based", "conditions": "Serratia marcescens, A20019"}, "S. marcescens A22302": {"system": "S. marcescens A22302", "experiment": "MIC by serial agar dilution", "assay_type": "cell-based", "conditions": "Serratia marcescens, A22302"}, "P. aeruginosa A9930": {"system": "P. aeruginosa A9930", "experiment": "MIC by serial agar dilution", "assay_type": "cell-based", "conditions": "Pseudomonas aeruginosa, medium A: Nutrient agar, read-out: MIC"}, "P. aeruginosa A9843A": {"system": "P. aeruginosa A9843A", "experiment": "microbe, parasite or virus in culture", "assay_type": "cell-based", "conditions": "Pseudomonas aeruginosa, A9843A"}, "P. aeruginosa A20601": {"system": "P. aeruginosa A20601", "experiment": "MIC by serial agar dilution", "assay_type": "cell-based", "conditions": "Pseudomonas aeruginosa; P. aeruginosa A20601, kanamycin resistant strain; medium A: Nutrient agar; read-out: MIC"}, "Mycobacterium 607 D87": {"system": "Mycobacterium 607 D87", "experiment": "MIC by serial agar dilution", "assay_type": "cell-based", "conditions": "Mycobacterium, 607D87"}, "Mycobacterium 607 D46": {"system": "Mycobacterium 607 D46", "experiment": "MIC by serial agar dilution", "assay_type": "cell-based", "conditions": "Mycobacterium 607 D46, kanamycin resistant strain; medium B: No. 1001 medium; read-out: MIC"}, "Mycobacterium phlei": {"system": "Mycobacterium phlei", "experiment": "MIC by serial agar dilution", "assay_type": "cell-based", "conditions": "Mycolicibacterium phlei"}, "Mycobacterium ranae": {"system": "Mycobacterium ranae", "experiment": "MIC by serial agar dilution", "assay_type": "cell-based", "conditions": "Mycobacterium"}, "S. aureus Smith [4]": {"system": "S. aureus Smith", "experiment": "in vivo efficacy in mice against experimental infection", "conditions": "Staphylococcus aureus, im, 120 h; mice, i.m. just before challenge, S. aureus Smith, 5 days observation; read-out: PD50"}, "E. coli Juhl [5]": {"system": "E. coli Juhl", "experiment": "in vivo efficacy in mice against experimental infection", "conditions": "Escherichia coli, im, 120 h, read-out: PD50"}, "K. pneumoniae D-11 [6]": {"system": "K. pneumoniae D-11", "experiment": "in vivo efficacy in mice against experimental infection", "conditions": "Klebsiella pneumoniae, D11, im, 120 h; mice, i.m. just before challenge, K. pneumoniae D-11, 5 days observation; read-out: PD50"}, "[7]": {"conditions": "Bacillus subtilis, PCI219, 18 h, read-out: Inhibition zone vs B. subtilis PCI-219"}}}
{"compound": "CN[C@@H]1[C@H](O[C@H]2[C@H](O[C@H]3[C@H](O)[C@@H](O)[C@H](OC(N)=O)[C@@H](O)[C@@H]3N=C(N)N)O[C@@H](C)[C@]2(O)CO)O[C@@H](CO)[C@H](O)[C@H]1O", "note": "[glebomycin]", "values": [{"measurement": "Growth zone vs E. coli D64", "setting": "E. coli D64; 1 mg/ml", "result": 15, "unit": "mm"}, {"measurement": "Growth zone vs E. coli D64", "setting": "E. coli D64; 4 mg/ml", "result": 27, "unit": "mm"}, {"measurement": "Inhibition zone vs B. subtilis PCI-219", "setting": "B. subtilis PCI-219; 1 mg/ml", "result": 30, "unit": "mm"}, {"measurement": "Inhibition zone vs B. subtilis PCI-219", "setting": "B. subtilis PCI-219; 4 mg/ml", "result": 33, "unit": "mm"}]}
{"compound": "[H]/N=C(/N)N[C@H]1[C@H](O)[C@@H](O)[C@H](O[C@@H]2O[C@@H](C)[C@](O)(C=O)[C@H]2O[C@@H]2O[C@@H](CO)[C@H](O)[C@@H](O)[C@@H]2NC)[C@@H](N/C(N)=N\\[H])[C@@H]1O", "note": "[streptomycin]", "values": [{"measurement": "MIC", "setting": "S. aureus 209P", "result": 1.6, "unit": "µg/mL"}, {"measurement": "MIC", "setting": "S. aureus Smith [1]", "result": 1.6, "unit": "µg/mL"}, {"measurement": "MIC", "setting": "S. aureus A20239", "result": "> 100", "unit": "µg/mL"}, {"measurement": "MIC", "setting": "M. luteus PCI-1001", "result": 3.1, "unit": "µg/mL"}, {"measurement": "MIC", "setting": "M. flavus D-12", "result": 0.8, "unit": "µg/mL"}, {"measurement": "MIC", "setting": "B. subtilis ATCC6633", "result": 0.8, "unit": "µg/mL"}, {"measurement": "MIC", "setting": "B. anthracis IID-115", "result": 0.4, "unit": "µg/mL"}, {"measurement": "MIC", "setting": "E. coli NIHJ", "result": 1.6, "unit": "µg/mL"}, {"measurement": "MIC", "setting": "E. coli Juhl [2]", "result": 3.1, "unit": "µg/mL"}, {"measurement": "MIC", "setting": "E. coli K-12", "result": 1.6, "unit": "µg/mL"}, {"measurement": "MIC", "setting": "E. coli A20664", "result": "> 100", "unit": "µg/mL"}, {"measurement": "MIC", "setting": "E. coli JR35/c600", "result": "> 100", "unit": "µg/mL"}, {"measurement": "MIC", "setting": "K. pneumoniae D-11 [3]", "result": 0.4, "unit": "µg/mL"}, {"measurement": "MIC", "setting": "K. pneumoniae A9678", "result": 6.3, "unit": "µg/mL"}, {"measurement": "MIC", "setting": "E. cloacae A20364", "result": "> 100", "unit": "µg/mL"}, {"measurement": "MIC", "setting": "E. cloacae A21006", "result": "> 100", "unit": "µg/mL"}, {"measurement": "MIC", "setting": "P. mirabilis A9554", "result": 1.6, "unit": "µg/mL"}, {"measurement": "MIC", "setting": "P. vulgaris A9436", "result": 0.4, "unit": "µg/mL"}, {"measurement": "MIC", "setting": "S. marcescens A20019", "result": 25, "unit": "µg/mL"}, {"measurement": "MIC", "setting": "S. marcescens A22302", "result": "> 100", "unit": "µg/mL"}, {"measurement": "MIC", "setting": "P. aeruginosa A9930", "result": "> 100", "unit": "µg/mL"}, {"measurement": "MIC", "setting": "P. aeruginosa A9843A", "result": "> 100", "unit": "µg/mL"}, {"measurement": "MIC", "setting": "P. aeruginosa A20601", "result": 3.1, "unit": "µg/mL"}, {"measurement": "MIC", "setting": "Mycobacterium 607 D87", "result": 0.4, "unit": "µg/mL"}, {"measurement": "MIC", "setting": "Mycobacterium 607 D46", "result": 0.4, "unit": "µg/mL"}, {"measurement": "MIC", "setting": "Mycobacterium phlei", "result": 0.2, "unit": "µg/mL"}, {"measurement": "MIC", "setting": "Mycobacterium ranae", "result": 0.4, "unit": "µg/mL"}, {"measurement": "Growth zone vs E. coli D64, hazy growth zone", "setting": "E. coli D64; 0.06 mg/ml", "result": 14, "unit": "mm"}, {"measurement": "Growth zone vs E. coli D64", "setting": "E. coli D64; 0.25 mg/ml", "result": 17, "unit": "mm"}, {"measurement": "Growth zone vs E. coli D64, hazy growth zone", "setting": "E. coli D64; 0.25 mg/ml", "result": 28, "unit": "mm"}, {"measurement": "zone of inhibition at 60 µg/mL", "setting": "B. subtilis PCI-219; [7]", "result": 32, "unit": "mm"}, {"measurement": "zone of inhibition at 250 µg/mL", "setting": "B. subtilis PCI-219; [7]", "result": 35, "unit": "mm"}, {"measurement": "ED50", "setting": "S. aureus Smith [4]", "result": 1.9, "unit": "mg/kg"}, {"measurement": "ED50", "setting": "E. coli Juhl [5]", "result": 1.4, "unit": "mg/kg"}, {"measurement": "ED50", "setting": "K. pneumoniae D-11 [6]", "result": 0.85, "unit": "mg/kg"}]}
{"compound": "myomycin B", "values": [{"measurement": "Growth zone vs E. coli D64, hazy growth zone", "setting": "E. coli D64; 0.25 mg/ml", "result": 28, "unit": "mm"}, {"measurement": "Growth zone vs E. coli D64", "setting": "E. coli D64; 1 mg/ml", "result": 17, "unit": "mm"}, {"measurement": "Growth zone vs E. coli D64, hazy growth zone", "setting": "E. coli D64; 1 mg/ml", "result": 34, "unit": "mm"}, {"measurement": "induction/stimulation of growth of streptomycin-dependent E. coli D64", "setting": "E. coli D64; result in words", "result": "stimulate the growth"}, {"measurement": "Inhibition zone vs B. subtilis PCI-219", "setting": "B. subtilis PCI-219; 0.25 mg/ml", "result": 29, "unit": "mm"}, {"measurement": "Inhibition zone vs B. subtilis PCI-219", "setting": "B. subtilis PCI-219; 1 mg/ml", "result": 34, "unit": "mm"}]}
